Experimental data reported in patent US9624217B2, “Dihydropyrrolopyridine inhibitors of ROR-gamma” (Vitae Pharmaceuticals, Inc., priority 2014, dated 2017).

Experiments:
[1] = molecular target: recombinant RORγ Ligand Binding Domain (LBD) (Homo sapiens (Human), UniProt P51449); assay: Radio-Ligand RORγ Binding Assay (Assay 1); conditions: SPA competition with 25-hydroxy [26,27-3H]-cholesterol, cell-free; read-out: RORγ Binding Ki Range
Description: Radio-Ligand RORγ Binding Assay (Assay 1)
Compounds of the present invention were tested for ability to bind to RORγ in a cell-free competition assay with commercially available radio-ligand (RL), 25-hydroxy [26,27-^3H]-cholesterol (PerkinElmer, Cat. #NET674250UC), for a ligand binding site on a recombinant RORγ Ligand Binding Domain (LBD) protein expressed as a 6×His-Glutathione-S-Transferase (GST) fusion. […] The plate was shaken at 700 rpm for 20 min and incubated for 10 min at rt, after which 40 μL of poly-Lys YSi SPA beads (PerkinElmer, Cat. #RPNQ0010) were added to achieve 50 μg of the beads per well. The plate was incubated on an orbital shaker for 20 min and then for 10 min without agitation at rt. SPA signal for tritium beta radiation was registered on PerkinElmer Microbeta plate reader. […] The percent inhibition vs. concentration data were fit into a four-parameter model, and IC50 values were calculated from the fit as the concentrations corresponding to the inflection points on the dose-response curves.

full-length RORγt = full-length RORγt (Homo sapiens (Human), UniProt P51449); assay: RORγt 5×RORE Assay in Jurkat Cells (Assay 2); type: cell-based; conditions: secreted Nanoluc luciferase 5×RORE reporter, 16-18 hrs, read-out: RORγt5X IC50 Range
Sequence of full-length RORγt (P51449 other isoform, or with tags, fused parts or gaps): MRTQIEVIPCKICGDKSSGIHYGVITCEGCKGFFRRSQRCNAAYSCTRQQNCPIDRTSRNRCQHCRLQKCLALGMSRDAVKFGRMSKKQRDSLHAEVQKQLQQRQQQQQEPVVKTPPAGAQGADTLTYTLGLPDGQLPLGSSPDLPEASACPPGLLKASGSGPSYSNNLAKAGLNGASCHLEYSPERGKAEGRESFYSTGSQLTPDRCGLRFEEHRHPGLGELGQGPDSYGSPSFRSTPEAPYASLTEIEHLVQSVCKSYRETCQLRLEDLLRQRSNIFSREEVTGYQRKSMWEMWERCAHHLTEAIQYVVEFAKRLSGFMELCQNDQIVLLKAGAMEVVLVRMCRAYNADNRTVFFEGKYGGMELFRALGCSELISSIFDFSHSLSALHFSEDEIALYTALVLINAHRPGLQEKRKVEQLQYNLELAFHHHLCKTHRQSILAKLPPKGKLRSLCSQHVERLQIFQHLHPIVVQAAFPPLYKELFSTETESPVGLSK
Description: [formula] RORγt 5×RORE Assay in Jurkat Cells (Assay 2)
Compounds of the present invention were tested for RORγ inverse agonist activity in a cell-based, transcriptional activity assay. […] (Promega, Cat. #N1021) using KpnI and HindIII restriction sites. […] Luciferase activity in the conditioned supernatants was determined with NanoGlo® assay reagents (Promega, Cat. #N1130).

Sequence of recombinant RORγ Ligand Binding Domain (LBD) (P51449 269-508): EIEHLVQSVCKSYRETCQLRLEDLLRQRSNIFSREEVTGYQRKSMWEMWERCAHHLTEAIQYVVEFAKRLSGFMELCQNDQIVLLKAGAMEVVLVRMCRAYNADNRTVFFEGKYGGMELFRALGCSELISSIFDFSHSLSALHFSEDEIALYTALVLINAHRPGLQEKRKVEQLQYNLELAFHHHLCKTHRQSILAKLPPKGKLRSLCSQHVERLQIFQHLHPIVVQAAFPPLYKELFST

| SMILES | Ki [1] [nM] | IC50 (full-length RORγt) [nM] |
| --- | --- | --- |
| CCS(=O)(=O)c1ccc(CNC(=O)c2cnc3c(c2)CN(Cc2ccc(C(F)(F)F)cc2)[C@H]3C(C)C)nc1 [Compound 33] | < 100 | < 100 |
| CCS(=O)(=O)c1ccc(CNC(=O)c2cnc3c(c2)[C@@H](C)N(Cc2ccc(C(F)(F)F)cc2)[C@H]3C(C)C)cc1 [Compound 30] | < 100 | < 100 |
| CC(C)[C@H]1c2ncc(C(=O)NCc3ccc(S(C)(=O)=O)cc3)cc2CN1Cc1ccc(F)cc1 [Compound 24] | < 100 | > 1000 |
| CCS(=O)(=O)c1ccc(CNC(=O)c2cnc3c(c2)C(=O)N(Cc2ccc(Cl)cc2)C3(O)C(C)C)cc1 (stereo not drawn) [Compound 11] | 100 to 1000 | > 1000 |
| CCS(=O)(=O)c1ccc(CNC(=O)c2cnc3c(c2)CN(C[C@H]2CC[C@H](OC)CC2)[C@H]3C(C)C)cc1 [Compound 45] | < 100 | < 100 |
| CC(C)[C@H]1c2ncc(C(=O)N[C@@H](CO)c3ccc(C#N)cc3)cc2CN1Cc1ccc(C(F)(F)F)cc1 [Compound 149] | < 100 | 100 to 1000 |
| CCS(=O)(=O)c1ccc(CNC(=O)c2cnc3c(c2)CN(Cc2ccc(OC(F)F)cc2)[C@H]3C(C)C)cc1 [Compound 5] | < 100 | < 100 |
| CC(C)[C@H]1c2ncc(C(=O)NCC3CCN(S(C)(=O)=O)CC3)cc2CN1Cc1ccc(C(F)(F)F)cc1 [Compound 63] | < 100 | 100 to 1000 |
| CCS(=O)(=O)N1CCC(CNC(=O)c2cnc3c(c2)CN(Cc2ccc(C(F)(F)F)cc2)[C@H]3C(C)C)CC1 [Compound 109] | < 100 | > 1000 |
| CCS(=O)(=O)c1ccc(CNC(=O)c2cnc3c(c2)CN(Cc2ccc(C#N)cc2)[C@H]3C(C)C)cc1 [Compound 4] | < 100 | < 100 |
| CCS(=O)(=O)c1ccc(CNC(=O)c2cnc3c(c2)CN(c2ncc(C(F)(F)F)cn2)[C@H]3C(C)C)cc1 [Compound 8] | < 100 | > 1000 |
| CCS(=O)(=O)c1cnc(CNC(=O)c2cnc3c(c2)CN(Cc2ccc(C(F)(F)F)cc2)[C@H]3C(C)C)c(F)c1 [Compound 144] | < 100 | < 100 |
| CCS(=O)(=O)c1ccc(CNC(=O)c2cnc3c(c2)CN(C(=O)OC(C)(C)C)[C@H]3C(C)C)nc1 [Compound 46, Tert-butyl (S)-3-(((5-(ethylsulfonyl)pyridin-2-yl)methyl)carbamoyl)-7-isopropyl-5,7-dihydro-6H-pyrrolo[3,4-b]pyridine-6-carboxylate] | < 100 | > 1000 |
| CCS(=O)(=O)c1ccc(CNC(=O)c2cnc3c(c2)CN(Cc2ccc(F)cc2)[C@H]3C(C)C)cc1 [Compound 7] | < 100 | 100 to 1000 |
| CC(C)[C@H]1c2ncc(C(=O)NCc3ccc(S(C)(=O)=O)cc3)cc2CN1Cc1ccc(C#N)cc1 [Compound 21] | 100 to 1000 | 100 to 1000 |
| CCS(=O)(=O)c1ccc(CNC(=O)c2cnc3c(c2)[C@H](C)N(Cc2ccc(Cl)cc2)[C@H]3C(C)C)cc1 [Compound 29] | < 100 | < 100 |
| CCS(=O)(=O)c1ccc(CNC(=O)c2cnc3c(c2)CN(Cc2ccc(Cl)cc2)[C@H]3C(C)C)cc1 [Compound 3] | < 100 | < 100 |
| CCS(=O)(=O)c1ccc(CNC(=O)c2cnc3c(c2)CN(Cc2ccc(C#N)cc2)[C@H]3C(C)C)nc1 [Compound 35] | < 100 | 100 to 1000 |
| CC(C)[C@H]1c2ncc(C(=O)NC[C@H]3CC[C@H](CC(=O)O)CC3)cc2CN1Cc1ccc(C(F)(F)F)cc1 [Compound 139] | < 100 | 100 to 1000 |

| SMILES | Ki [1] [nM] | IC50 (full-length RORγt) [nM] |
| --- | --- | --- |
| CC(C)[C@H]1c2ncc(C(=O)NCc3ccc(S(C)(=O)=O)cc3)cc2CN1Cc1ccc(C(F)(F)F)cc1 [Compound 22] | < 100 | < 100 |
| CCS(=O)(=O)c1ccc(CC(=O)Nc2cnc3c(c2)CN(C[C@H]2CC[C@H](C(F)(F)F)CC2)[C@H]3C(C)C)cc1 [Compound 55] | < 100 | < 100 |
| CCS(=O)(=O)c1ccc(CC(=O)Nc2cnc3c(c2)CN(Cc2ccc(C(F)(F)F)cc2)[C@H]3C(C)C)cc1 [Compound 58] | < 100 | < 100 |
| CCS(=O)(=O)c1ccc(CNC(=O)c2cnc3c(c2)CN(C(=O)OC(C)(C)C)[C@H]3C(C)C)cc1 [Compound 15, tert-butyl (S)-3-((4-(ethylsulfonyl)benzyl)carbamoyl)-7-isopropyl-5,7-dihydro-6H-pyrrolo[3,4-b]pyridine-6-carboxylate] | – | > 1000 |
| CCS(=O)(=O)c1ccc(CNC(=O)c2cnc3c(c2)[C@H](C)N(Cc2ccc(C(F)(F)F)cc2)[C@H]3C(C)C)cc1 [Compound 31] | < 100 | < 100 |
| CCS(=O)(=O)c1ccc(CNC(=O)c2cnc3c(c2)CN(C(=O)OCc2ccc(Cl)cc2)[C@H]3C(C)C)cc1 [Compound 25] | < 100 | > 1000 |
| CCS(=O)(=O)c1ccc(CC(=O)Nc2cnc3c(c2)CN(Cc2ccc(C#N)cc2)[C@H]3C(C)C)cc1 [Compound 57] | < 100 | < 100 |
| CC(C)[C@H]1c2ncc(C(=O)NCc3ccc(C#N)cc3)cc2CN1Cc1ccc(C(F)(F)F)cc1 [Compound 64] | < 100 | 100 to 1000 |
| CC(C)[C@H]1c2ncc(C(=O)NCc3ccc(C#N)cn3)cc2CN1Cc1ccc(C(F)(F)F)cc1 [Compound 155] | 100 to 1000 | > 1000 |
| CCS(=O)(=O)c1ccc(CNC(=O)c2cnc3c(c2)CN(CC2CCC(F)(F)CC2)[C@H]3C(C)C)cc1 [Compound 42] | < 100 | > 1000 |
| CCOC(=O)c1cnc(N2Cc3cc(C(=O)NCc4ccc(S(=O)(=O)CC)cc4)cnc3[C@@H]2C(C)C)nc1C(F)(F)F [Compound 10] | < 100 | > 1000 |
| CCS(=O)(=O)c1ccc(CNC(=O)c2cnc3c(c2)CN(CC2CCN(CC(F)(F)F)CC2)[C@H]3C(C)C)cc1 [Compound 49] | < 100 | < 100 |
| CCS(=O)(=O)c1cnc(CNC(=O)c2cnc3c(c2)CN(Cc2ccc(C(F)(F)F)cc2)[C@H]3C(C)C)c(C)c1 [Compound 142] | < 100 | < 100 |
| CCS(=O)(=O)c1ccc(CNC(=O)c2cnc3c(c2)CN(Cc2ccc4c(c2)OC(F)(F)O4)[C@H]3C(C)C)nc1 [Compound 54] | < 100 | < 100 |
| CCS(=O)(=O)c1ccc(CNC(=O)c2cnc3c(c2)[C@@H](C)N(Cc2ccc(Cl)cc2)[C@H]3C(C)C)cc1 [Compound 28] | < 100 | < 100 |
| CNS(=O)(=O)c1ccc(CNC(=O)c2cnc3c(c2)CN(Cc2ccc(C(F)(F)F)cc2)[C@H]3C(C)C)cc1 [Compound 67] | < 100 | < 100 |
| CCS(=O)(=O)c1ccc(CNC(=O)c2cnc3c(c2)CN(CC2CCC(F)(F)CC2)[C@H]3C(C)C)nc1 [Compound 43] | < 100 | > 1000 |
| CC(C)[C@H]1c2ncc(C(=O)NCc3ccc(S(C)(=O)=O)cc3)cc2CN1Cc1ccc(Cl)cc1 [Compound 17] | < 100 | < 100 |
| CCS(=O)(=O)c1ccc(CNC(=O)c2cnc3c(c2)CN(Cc2ccc(Cl)cc2)[C@H]3C(C)C)nc1 [Compound 34] | < 100 | < 100 |
